Source: ChEMBL document CHEMBL5137131, “Mechanisms of Biochanin A Alleviating PM2.5 Organic Extracts-Induced EMT of A549 Cells through the PI3K/Akt Pathway” (J Nat Prod, 2022)
Activity calls are given as the source filed them. The rule behind the calls is not given here.

Key:
A549 [1] = test: Inhibition of cell migration in PM2.5 induced human A549 at 30 uM incubated for 24 hrs by wound healing assay relative to control; type: functional
A549 [2] = test: Downregulation of PM2.5 induced MMP-2 activation in human A549 cells at 10 uM by ELISA; type: functional, cell-based
A549 [3] = test: Downregulation of PM2.5 induced vimentin mRNA expression in human A549 cells at 30 uM by qRT-PCR analysis relative to control; type: functional
A549 [4] = test: Inhibition of cell migration in PM2.5 induced human A549 assessed as relative migration length at 10 uM incubated for 24 hr by wound healing assay (reference value: 0.363 micrometer); type: functional
A549 [5] = test: Protection against PM2.5 induced human A549 cells injury assessed as reduction in PM2.5 induced cell proliferation inhibition at 10 to 30 uM measured at 24 hrs by CCK-8 analysis; type: functional, cell-based; conditions: dose 10-30 µM
A549 [6] = test: Inhibition of cell migration in PM2.5 induced human A549 assessed as scratch migration length at 20 uM incubated for 24 hr by wound healing assay (reference value: 1.757 +/- 0.094 micrometer); type: functional
A549 [7] = test: Cytotoxicity against human A549 cells assessed as reduction in cell viability at 200 uM incubated for 48 hrs by CCK-8 assay relative to control; type: toxicity, cell-based; conditions: a549, 48 h
[8] = molecular target: T1, Serine/threonine-protein kinase AKT (Homo sapiens) (UniProt P31751+Q9Y243+P31749); test: Inhibition of PM2.5 induced Akt phosphorylation upregulation in human A549 cells at 20 uM by Western blot analysis relative to control; type: cell-based
T1 sequence (P31749 whole entry, looked up): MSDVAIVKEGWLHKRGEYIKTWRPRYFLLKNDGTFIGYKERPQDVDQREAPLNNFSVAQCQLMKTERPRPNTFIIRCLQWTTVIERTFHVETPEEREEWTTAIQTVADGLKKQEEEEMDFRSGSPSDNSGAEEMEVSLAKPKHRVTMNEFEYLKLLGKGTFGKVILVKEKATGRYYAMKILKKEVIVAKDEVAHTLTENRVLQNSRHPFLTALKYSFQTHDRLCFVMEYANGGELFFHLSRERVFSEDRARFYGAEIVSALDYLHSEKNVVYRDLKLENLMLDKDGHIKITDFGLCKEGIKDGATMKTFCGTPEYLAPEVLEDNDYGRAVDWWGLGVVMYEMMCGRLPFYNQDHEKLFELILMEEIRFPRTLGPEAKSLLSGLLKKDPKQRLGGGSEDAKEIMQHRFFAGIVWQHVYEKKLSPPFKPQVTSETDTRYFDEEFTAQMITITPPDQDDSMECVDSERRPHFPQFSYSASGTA
T1 sequence (P31751 whole entry, looked up): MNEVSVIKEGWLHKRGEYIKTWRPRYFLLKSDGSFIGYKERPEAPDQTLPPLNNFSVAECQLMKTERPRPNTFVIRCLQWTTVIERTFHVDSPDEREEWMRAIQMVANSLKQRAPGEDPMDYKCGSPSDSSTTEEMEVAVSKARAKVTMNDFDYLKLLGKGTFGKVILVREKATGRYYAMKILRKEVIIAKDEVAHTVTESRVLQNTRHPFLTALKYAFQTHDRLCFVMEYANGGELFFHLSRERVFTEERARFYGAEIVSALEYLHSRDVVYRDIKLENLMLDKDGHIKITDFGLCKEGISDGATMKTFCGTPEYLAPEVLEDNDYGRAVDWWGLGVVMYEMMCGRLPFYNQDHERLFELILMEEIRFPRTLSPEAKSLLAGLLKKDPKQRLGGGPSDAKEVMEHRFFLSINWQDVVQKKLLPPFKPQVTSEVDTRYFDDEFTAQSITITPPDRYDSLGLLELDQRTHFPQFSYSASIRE
T1 sequence (Q9Y243 whole entry, looked up): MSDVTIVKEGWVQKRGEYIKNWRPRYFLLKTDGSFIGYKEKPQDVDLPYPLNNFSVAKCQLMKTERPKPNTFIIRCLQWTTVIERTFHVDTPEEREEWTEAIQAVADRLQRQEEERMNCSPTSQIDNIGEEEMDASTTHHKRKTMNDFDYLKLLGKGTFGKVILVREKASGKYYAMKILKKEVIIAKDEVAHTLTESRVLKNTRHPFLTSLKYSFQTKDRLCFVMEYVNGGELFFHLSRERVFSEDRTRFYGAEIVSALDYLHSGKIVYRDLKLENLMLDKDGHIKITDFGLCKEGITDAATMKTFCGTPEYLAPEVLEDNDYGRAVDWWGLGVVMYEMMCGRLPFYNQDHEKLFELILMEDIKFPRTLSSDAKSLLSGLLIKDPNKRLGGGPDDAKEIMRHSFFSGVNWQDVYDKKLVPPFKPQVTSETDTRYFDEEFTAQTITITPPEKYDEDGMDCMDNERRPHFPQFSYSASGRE

A549 [9] = test: Inhibition of cell migration in PM2.5 induced human A549 assessed as relative migration length at 20 uM incubated for 24 hr by wound healing assay (reference value: 0.363 micrometer); type: functional
A549 [10] = test: Inhibition of PM2.5 induced PI3K/Akt activation assessed as inhibition of Slug expression in human A549 cells at 10 to 20 uM; type: cell-based; conditions: dose 10-20 µM
A549 [11] = test: Inhibition of PM2.5 induced Akt phosphorylation in human A549 cells at 10 to 30 uM […]; type: functional, cell-based; conditions: dose 10-30 µM
A549 [12] = test: Inhibition of cell migration in PM2.5 induced human A549 assessed as scratch migration length at 20 uM incubated for 0 hr by wound healing assay (reference value: 2.120 +/- 0.132 micrometer); type: functional
A549 [13] = test: Inhibition of cell invasion in PM2.5 induced human A549 cells assessed as reduction in cell invasiveness at 20 uM measured after 24 hrs by Giemsa staining based transwell assay relative to control; type: functional; parameters: scale not given: the % may be the effect or the level left
A549 [14] = test: Downregulation of PM2.5 induced vimentin mRNA expression in human A549 cells at 10 uM by qRT-PCR analysis relative to control; type: functional
A549 [15] = test: Inhibition of cell invasion in PM2.5 induced human A549 cells assessed as number of cell perforation at 20 uM measured after 24 hrs by Giemsa staining based transwell assay (reference value: 93 +/- 4.04%); type: functional; parameters: scale not given: the % may be the effect or the level left
A549 [16] = test: Upregulation of PM2.5 induced mRNA expression in human A549 cells at 20 uM by qRT-PCR analysis; type: functional, cell-based
A549 [17] = test: Inhibition of cell invasion in PM2.5 induced human A549 cells assessed as number of cell perforation at 30 uM measured after 24 hrs by Giemsa staining based transwell assay (reference value: 93 +/- 4.04%); type: functional; parameters: scale not given: the % may be the effect or the level left
A549 [18] = test: Upregulation of PM2.5 induced E-cadherin mRNA expression in human A549 cells at 10 uM by qRT-PCR analysis; type: functional, cell-based
[19] = molecular target: T1, Serine/threonine-protein kinase AKT (Homo sapiens); test: Inhibition of PM2.5 induced Akt phosphorylation upregulation in human A549 cells at 10 uM by Western blot analysis relative to control; type: cell-based
A549 [20] = test: Inhibition of cell migration in PM2.5 induced human A549 assessed as relative migration length at 30 uM incubated for 24 hr by wound healing assay (reference value: 0.363 micrometer); type: functional
A549 [21] = test: Inhibition of cell migration in PM2.5 induced human A549 assessed as relative migration rate at 10 uM incubated for 24 hr by wound healing assay (reference value: 129%); type: functional; parameters: scale not given: the % may be the effect or the level left
[22] = molecular target: T1, Serine/threonine-protein kinase AKT (Homo sapiens); test: Inhibition of PM2.5 induced Akt phosphorylation upregulation in human A549 cells at 30 uM by Western blot analysis relative to control; type: cell-based
A549 [23] = test: Reversal of PM2.5 induced EMT in human A549 cells at 10 uM by ELISA; type: functional, cell-based
A549 [24] = test: Downregulation of PM2.5 induced vimentin mRNA expression in human A549 cells at 20 uM by qRT-PCR analysis relative to control; type: functional
A549 [25] = test: Inhibition of PM2.5 induced TGF-beta1 secretion in human A549 cells at 20 uM by ELISA relative to control; type: functional
A549 [26] = test: Protection against PM2.5 induced human A549 cells morphological change assessed as reduction in number of mesenchymal morphogenetic cells at 10 to 30 uM measured after 48 hrs by microscopic analysis; type: functional, cell-based; conditions: dose 10-30 µM
A549 [27] = test: Inhibition of cell migration in PM2.5 induced human A549 assessed as scratch migration length at 30 uM incubated for 24 hr by wound healing assay (reference value: 1.757 +/- 0.094 micrometer); type: functional
A549 [28] = test: Upregulation of PM2.5 induced E-cadherin expression in human A549 cells at 30 uM by Western blot analysis; type: functional, cell-based
A549 [29] = test: Downregulation of PM2.5 induced fibronectin mRNA level in human A549 cells at 30 uM by qRT-PCR analysis; type: functional, cell-based
A549 [30] = test: Downregulation of PM2.5 induced N-cadherin mRNA level in human A549 cells at 20 uM by qRT-PCR analysis relative to control; type: functional
A549 [31] = test: Inhibition of PM2.5 induced TGF-beta1 secretion in human A549 cells at 30 uM by ELISA relative to control; type: functional
A549 [32] = test: Inhibition of cell migration in PM2.5 induced human A549 assessed as relative migration rate at 20 uM incubated for 24 hr by wound healing assay (reference value: 129%); type: functional; parameters: scale not given: the % may be the effect or the level left
A549 [33] = test: Inhibition of PM2.5 induced PI3K/Akt activation assessed as inhibition of Twist expression in human A549 cells at 10 to 20 uM; type: cell-based; conditions: dose 10-20 µM
A549 [34] = test: Inhibition of PM2.5 induced PI3K/Akt activation assessed as inhibition of Snail expression in human A549 cells at 10 to 20 uM; type: cell-based; conditions: dose 10-20 µM
A549 [35] = test: Downregulation of PM2.5 induced fibronectin mRNA level in human A549 cells at 10 uM by qRT-PCR analysis; type: functional, cell-based
A549 [36] = test: Downregulation of PM2.5 induced MMP-9 activation in human A549 cells at 10 uM by ELISA; type: functional, cell-based
A549 [37] = test: Inhibition of cell invasion in PM2.5 induced human A549 cells assessed as number of cell perforation at 10 uM measured after 24 hrs by Giemsa staining based transwell assay (reference value: 93 +/- 4.04%); type: functional; parameters: scale not given: the % may be the effect or the level left
A549 [38] = test: Downregulation of PM2.5 induced CXCL12 expression in human A549 cells at 10 uM by ELISA relative to control; type: functional
A549 [39] = test: Downregulation of PM2.5 induced vimentin expression in human A549 cells at 10 to 30 uM by Western blot analysis relative to control; type: functional; conditions: dose 10-30 µM
A549 [40] = test: Downregulation of PM2.5 induced fibronectin mRNA level in human A549 cells at 20 uM by qRT-PCR analysis; type: functional, cell-based
A549 [41] = test: Inhibition of cell migration in PM2.5 induced human A549 assessed as scratch migration length at 10 uM incubated for 24 hr by wound healing assay (reference value: 1.757 +/- 0.094 micrometer); type: functional
A549 [42] = test: Inhibition of cell invasion in PM2.5 induced human A549 cells assessed as reduction in cell invasiveness at 30 uM measured after 24 hrs by Giemsa staining based transwell assay relative to control; type: functional; parameters: scale not given: the % may be the effect or the level left
A549 [43] = test: Inhibition of PM2.5 induced TGF-beta1 secretion in human A549 cells at 10 uM by ELISA relative to control; type: functional
A549 [44] = test: Inhibition of cell migration in PM2.5 induced human A549 assessed as scratch migration length at 10 uM incubated for 0 hr by wound healing assay (reference value: 2.120 +/- 0.132 micrometer); type: functional
A549 [45] = test: Downregulation of PM2.5 induced N-cadherin mRNA level in human A549 cells at 10 uM by qRT-PCR analysis relative to control; type: functional
A549 [46] = test: Inhibition of PM2.5 induced PI3K upregulation in human A549 cells at 30 uM by Western blot analysis relative to control; type: functional
A549 [47] = test: Inhibition of PM2.5 induced PI3K expression in human A549 cells at 10 to 30 uM by qRT-PCR analysis; type: functional, cell-based; conditions: dose 10-30 µM
A549 [48] = test: Cytotoxicity against human A549 cells assessed as reduction in cell viability at 1.5625 to 25 uM incubated for 48 hrs by CCK-8 assay; type: toxicity, cell-based; conditions: a549, 48 h, dose 1.5625-25 µM
A549 [49] = test: Inhibition of cell migration in PM2.5 induced human A549 assessed as relative migration rate at 30 uM incubated for 24 hr by wound healing assay (reference value: 129%); type: functional; parameters: scale not given: the % may be the effect or the level left
A549 [50] = test: Inhibition of cell migration in PM2.5 induced human A549 assessed as scratch migration length at 30 uM incubated for 0 hr by wound healing assay (reference value: 2.120 +/- 0.132 micrometer); type: functional
A549 [51] = test: Downregulation of PM2.5 induced CXCL12 expression in human A549 cells at 20 uM by ELISA relative to control; type: functional
A549 [52] = test: Inhibition of PM2.5 induced PI3K upregulation in human A549 cells at 20 uM by Western blot analysis relative to control; type: functional

COc1ccc(-c2coc3cc(O)cc(O)c3c2=O)cc1 [BIOCHANIN]
inhibition at 30 µM (A549 [1]): 22%
Activity (A549 [2]): Active
Activity (A549 [3]): 78%
Activity (A549 [4]): 0.405 um
Activity (A549 [5]): Active
Activity (A549 [6]): 1.451 um
Activity (A549 [7]): 19%
inhibition [8]: 73.6%
Activity (A549 [9]): 0.481 um
inhibition (A549 [10]): Active
inhibition (A549 [11]): Active
Activity (A549 [12]): 1.932 um
Activity (A549 [13]): 34.09%
Activity (A549 [14]): 76%
Activity (A549 [15]): 61.3%
Activity (A549 [16]): Active
Activity (A549 [17]): 52%
Activity (A549 [18]): Active
inhibition [19]: 30%
Activity (A549 [20]): 0.302 um
Activity (A549 [21]): 144%
inhibition [22]: 17.1%
Activity (A549 [23]): Active
Activity (A549 [24]): 48%
inhibition at 20 µM (A549 [25]): 13.1%
Activity (A549 [26]): Active
Activity (A549 [27]): 1.552 um
Activity (A549 [28]): Active
Activity (A549 [29]): Active
Activity (A549 [30]): 79%
inhibition at 30 µM (A549 [31]): 24.8%
Activity (A549 [32]): 171%
inhibition (A549 [33]): Active
inhibition (A549 [34]): Active
Activity (A549 [35]): Active
Activity (A549 [36]): Active
Activity (A549 [37]): 92%
Activity (A549 [38]): 17%
Activity (A549 [39]): 45%
Activity (A549 [40]): Active
Activity (A549 [41]): 1.568 um
Activity (A549 [42]): 44.1%
inhibition at 10 µM (A549 [43]): 16.2%
Activity (A549 [44]): 1.973 um
Activity (A549 [45]): 67%
inhibition at 30 µM (A549 [46]): 63.3%
inhibition (A549 [47]): Active
Activity (A549 [48]): Non-Toxic
Activity (A549 [49]): 107%
Activity (A549 [50]): 1.854 um
Activity (A549 [51]): 20%
inhibition at 20 µM (A549 [52]): 50%
